Reference: patent US9896418B2, “Aryl ethers and uses thereof” (Peloton Therapeutics, Inc., priority 2013, dated 2018)

System: HIF-2α HIS TAG-PASB Domain
Test: HIF-2α Scintillation Proximity Assay (SPA)
Format: binding
Description: The percent inhibition was determined and IC50 values were calculated using the Dotmatics system based on the following equation: % inhibition=[(high control−sample)/(high control−low control)]×100.

O=Cc1c(S(=O)(=O)C(F)(F)F)ccc(Oc2cc(F)cc(Cl)c2)c1Cl [Compound 112, 2-Chloro-3-(3-chloro-5-fluorophenoxy)-6-((trifluoromethyl)sulfonyl)benzaldehyde]
IC50: 40 nM

CNCc1c(S(=O)(=O)C(F)(F)F)ccc(Oc2cc(F)cc(Cl)c2)c1Cl [Compound 113, 1-(2-Chloro-3-(3-chloro-5-fluorophenoxy)-6-((trifluoromethyl)sulfonyl)phenyl)-N-methylmethanamine]
IC50: 2300 nM

O=S(=O)(c1ccc(Oc2cc(F)cc(Cl)c2)c(Cl)c1CNCCF)C(F)(F)F [Compound 114, N-(2-Chloro-3-(3-chloro-5-fluorophenoxy)-6-((trifluoromethyl)sulfonyl)benzyl)-2-fluoroethan-1-amine]
IC50: 1100 nM

N#Cc1cccc(Oc2ccc(S(=O)(=O)C(F)(F)F)cc2Br)c1 [Compound 117, 3-(2-Bromo-4-((trifluoromethyl)sulfonyl)phenoxy)benzonitrile]
IC50: 210 nM

N#Cc1cc(F)cc(Oc2ccc(S(=O)(=O)C(F)(F)F)cc2Br)c1 [Compound 118, 3-(2-Bromo-4-((trifluoromethyl)sulfonyl)phenoxy)-5-fluorobenzonitrile]
IC50: 160 nM

N#Cc1cc(F)cc(Oc2ccc(S(=O)(=O)C(F)(F)F)cc2C#N)c1 [Compound 120, 2-(3-Cyano-5-fluorophenoxy)-5-((trifluoromethyl)sulfonyl)benzonitrile]
IC50: 340 nM

COC(=O)c1cc(S(=O)(=O)C(F)(F)F)ccc1Oc1cc(F)cc(Cl)c1 [Compound 121, Methyl 2-(3-chloro-5-fluorophenoxy)-5-((trifluoromethyl)sulfonyl)benzoate]
IC50: 16000 nM

O=S(=O)(c1ccc(Oc2cc(F)cc(Cl)c2)c(CO)c1)C(F)(F)F [Compound 122, (2-(3-Chloro-5-fluorophenoxy)-5-((trifluoromethyl)sulfonyl)phenyl)methanol]
IC50: 1700 nM

O=Cc1cc(S(=O)(=O)C(F)(F)F)ccc1Oc1cc(F)cc(Cl)c1 [Compound 123, 2-(3-Chloro-5-fluorophenoxy)-5-((trifluoromethyl)sulfonyl)benzaldehyde]
IC50: 32 nM

NC(=O)c1cc(S(=O)(=O)C(F)(F)F)ccc1Oc1cc(F)cc(Cl)c1 [Compound 125, 2-(3-Chloro-5-fluorophenoxy)-5-((trifluoromethyl)sulfonyl)benzamide]
IC50: 8000 nM

O=S(=O)(c1ccc(Oc2cc(F)cc(Cl)c2)c(CCO)c1)C(F)(F)F [Compound 127, 2-[2-(3-Chloro-5-fluoro-phenoxy)-5-(trifluoromethylsulfonyl)phenyl]ethanol]
IC50: 2800 nM

O=S(=O)(c1cc(C(F)(F)F)ccc1Oc1cc(F)cc(Cl)c1)C(F)(F)F [Compound 129, 1-(3-Chloro-5-fluorophenoxy)-4-(trifluoromethyl)-2-((trifluoromethyl)sulfonyl)benzene]
IC50: 2200 nM

C=CS(=O)(=O)c1ccc(Oc2cc(F)cc(Cl)c2)c(Br)c1 [Compound 130, 2-Bromo-1-(3-chloro-5-fluorophenoxy)-4-(vinylsulfonyl)benzene]
IC50: 5500 nM

O=S(=O)(c1ccc(Oc2cc(F)cc(Cl)c2)c(Br)c1)C(F)F [Compound 131, 2-Bromo-1-(3-chloro-5-fluorophenoxy)-4-((difluoromethyl)sulfonyl)benzene]
IC50: 310 nM

N#Cc1cc(F)cc(Oc2ccc(S(=O)(=O)C(F)F)cc2Br)c1 [Compound 132, 3-(2-Bromo-4-((difluoromethyl)sulfonyl)phenoxy)-5-fluorobenzonitrile]
IC50: 310 nM

N#Cc1cc(S(=O)(=O)C(F)F)ccc1Oc1cc(F)cc(Cl)c1 [Compound 133, 2-(3-Chloro-5-fluorophenoxy)-5-((difluoromethyl)sulfonyl)benzonitrile]
IC50: 500 nM

N#Cc1cc(F)cc(Oc2ccc(S(=O)(=O)C(F)F)cc2C#N)c1 [Compound 134, 2-(3-Cyano-5-fluorophenoxy)-5-((difluoromethyl)sulfonyl)benzonitrile]
IC50: 450 nM

Cc1cc(S(=O)(=O)C(F)F)ccc1Oc1cc(F)cc(Cl)c1 [Compound 135, 1-(3-Chloro-5-fluoro-phenoxy)-4-(difluoromethylsulfonyl)-2-methyl-benzene]
IC50: 370 nM

Cc1cc(S(=O)(=O)C(F)F)ccc1Oc1cc(F)cc(C#N)c1 [Compound 136, 3-[4-(Difluoromethylsulfonyl)-2-methyl-phenoxy]-5-fluoro-benzonitrile]
IC50: 230 nM

O=S(=O)(CF)c1ccc(Oc2cc(F)cc(Cl)c2)c(Br)c1 [Compound 137, 2-Bromo-1-(3-chloro-5-fluorophenoxy)-4-((fluoromethyl)sulfonyl)benzene]
IC50: 560 nM

CS(=O)(=O)c1ccc(Oc2cc(F)cc(Cl)c2)c(Br)c1 [Compound 138, 2-Bromo-1-(3-chloro-5-fluorophenoxy)-4-(methylsulfonyl)benzene]
IC50: 4000 nM

Cc1c(Oc2cc(F)cc(Cl)c2)ccc(S(=O)(=O)C(F)(F)F)c1Br [Compound 140, 3-Bromo-1-(3-chloro-5-fluoro-phenoxy)-2-methyl-4-(trifluoromethylsulfonyl)benzene]
IC50: 29 nM

Cc1c(Oc2cc(F)cc(C#N)c2)ccc(S(=O)(=O)C(F)(F)F)c1Br [Compound 141, 3-[3-Bromo-2-methyl-4-(trifluoromethylsulfonyl)phenoxy]-5-fluoro-benzonitrile]
IC50: 65 nM

Cc1c(Oc2cc(F)cc(C#N)c2)ccc(S(=O)(=O)C(F)(F)F)c1C#CCO [Compound 142, 3-Fluoro-5-[3-(3-hydroxyprop-1-ynyl)-2-methyl-4-(trifluoromethylsulfonyl)phenoxy]benzonitrile]
IC50: 13000 nM

Cc1c(Oc2cc(F)cc(Cl)c2)ccc(S(=O)(=O)C(F)(F)F)c1Cl [Compound 143, 3-Chloro-1-(3-chloro-5-fluoro-phenoxy)-2-methyl-4-(trifluoromethylsulfonyl)benzene]
IC50: 20 nM

Cc1c(Oc2cc(F)cc(C#N)c2)ccc(S(=O)(=O)C(F)(F)F)c1Cl [Compound 144, 3-Fluoro-5-[3-chloro-2-methyl-4-(trifluoromethylsulfonyl)phenoxy]benzonitrile]
IC50: 44 nM

Cc1c(Oc2cc(F)cc(C#N)c2)ccc(S(=O)(=O)C(F)(F)F)c1C=O [Compound 145, 3-Fluoro-5-[3-formyl-2-methyl-4-(trifluoromethylsulfonyl)phenoxy]benzonitrile]
IC50: 74 nM

COC(=O)/C=C/c1c(S(=O)(=O)C(F)(F)F)ccc(Oc2cc(F)cc(C#N)c2)c1C [Compound 147, Methyl (E)-3-[3-(3-cyano-5-fluoro-phenoxy)-2-methyl-6-(trifluoromethylsulfonyl)phenyl]prop-2-enoate]
IC50: 110 nM

CCOC(=O)/C=C/c1c(S(=O)(=O)C(F)(F)F)ccc(Oc2cc(F)cc(C#N)c2)c1C [Compound 148, Ethyl (E)-3-(3-(3-cyano-5-fluorophenoxy)-2-methyl-6-((trifluoromethyl)sulfonyl)phenyl)acrylate]
IC50: 220 nM

Cc1c(Oc2cc(F)cc(C#N)c2)ccc(S(=O)(=O)C(F)(F)F)c1/C=C/C(=O)NCc1ccccc1 [Compound 149, (E)-N-Benzyl-3-(3-(3-cyano-5-fluorophenoxy)-2-methyl-6-((trifluoromethyl)sulfonyl)phenyl)acrylamide]
IC50: 5700 nM

Cc1c(Oc2cc(F)cc(C#N)c2)ccc(S(=O)(=O)C(F)(F)F)c1/C=C/c1nnco1 [Compound 150, 3-Fluoro-5-[2-methyl-3-[(E)-2-(1,3,4-oxadiazol-2-yl)vinyl]-4-(trifluoromethylsulfonyl)phenoxy]benzonitrile]
IC50: 1300 nM

Cc1nnc(/C=C/c2c(S(=O)(=O)C(F)(F)F)ccc(Oc3cc(F)cc(C#N)c3)c2C)o1 [Compound 151, 3-Fluoro-5-[2-methyl-3-[(E)-2-(5-methyl-1,3,4-oxadiazol-2-yl)vinyl]-4-(trifluoromethylsulfonyl)phenoxy]benzonitrile]
IC50: 1100 nM

CS(=O)(=O)c1ccc(Oc2cc(F)cc(C#N)c2)c(C#N)c1Cl [Compound 152, 2-chloro-6-(3-cyano-5-fluorophenoxy)-3-(methylsulfonyl)benzonitrile]
IC50: 320 nM

N#Cc1c(Oc2cc(F)cc(Cl)c2)ccc(S(=O)(=O)C(F)(F)F)c1F [Compound 153, 6-(3-chloro-5-fluorophenoxy)-2-fluoro-3-((trifluoromethyl)sulfonyl)benzonitrile]
IC50: 230 nM

N#Cc1c(Oc2cc(F)cc(Cl)c2)ccc(S(=O)(=O)C(F)(F)F)c1NCCO [Compound 154, 6-(3-Chloro-5-fluoro-phenoxy)-2-(2-hydroxyethylamino)-3-(trifluoromethylsulfonyl)benzonitrile]
IC50: 11700 nM

O=S(=O)(c1ccc(Oc2ccc(Cl)c(Cl)c2)c(Br)c1)C(F)(F)F [Compound 169, 2-Bromo-1-(3,4-dichlorophenoxy)-4-((trifluoromethyl)sulfonyl)benzene]
IC50: 1900 nM

O=S(=O)(c1ccc(Oc2cc(Cl)ccc2F)c(Br)c1)C(F)(F)F [Compound 170, 2-Bromo-1-(5-chloro-2-fluorophenoxy)-4-((trifluoromethyl)sulfonyl)benzene]
IC50: 1800 nM

Cc1c(Cl)cccc1Oc1ccc(S(=O)(=O)C(F)(F)F)cc1Br [Compound 171, 1-(2-Bromo-4-((trifluoromethyl)sulfonyl)phenoxy)-3-chloro-2-methylbenzene]
IC50: 1200 nM

O=S(=O)(c1ccc(Oc2cc(Cl)cc(Cl)c2)c(Br)c1)C(F)(F)F [Compound 172, 2-Bromo-1-(3,5-dichlorophenoxy)-4-((trifluoromethyl)sulfonyl)benzene]
IC50: 310 nM

Cc1cc(C)cc(Oc2ccc(S(=O)(=O)C(F)(F)F)cc2Br)c1 [Compound 173, 2-Bromo-1-(3,5-dimethylphenoxy)-4-((trifluoromethyl)sulfonyl)benzene]
IC50: 2000 nM

Cc1ccc(Cl)cc1Oc1ccc(S(=O)(=O)C(F)(F)F)cc1Br [Compound 174, 2-Bromo-1-(5-chloro-2-methylphenoxy)-4-((trifluoromethyl)sulfonyl)benzene]
IC50: 1200 nM

O=S(=O)(c1ccc(Oc2cc(F)cc(CO)c2)c(Br)c1)C(F)(F)F [Compound 177, (3-(2-Bromo-4-((trifluoromethyl)sulfonyl)phenoxy)-5-fluorophenyl)methanol]
IC50: 18000 nM
